The record followed here is the supplement of paper PMC10290057.

Structures are written as SMILES. Structures can show the parent of a compound that is named as a salt.
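Further: Luminescence-based viability readout, five doses per compound, normalized against on-plate DMSO and empty-well controls, followed by dose-response curve fitting for every drug.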

For the assay, the system named is HCT116. As to the kind of experiment: efficacy (fitted maximal change in viability relative to DMSO control); higher = less cytotoxic (negative = loss of viability). Conditions: 48 h.
As to `CC#CC(=O)N1CCC[C@H]1c1nc(-c2ccc(C(=O)Nc3ccccn3)cc2)c2c(N)nccn12` [Acalabrutinib], the efficacy was -13.7%.

Take `C[C@H](NC1=NC=NC2=C1[NH]C=N2)\C3=N\C4=C(C=C(F)C=C4)C(=O)N3C5=CC=CC=C5` [Acalisib]: the efficacy is -38.2%.

`CC(=O)Nc1ccc(O)cc1` [Acetaminophen]: the efficacy worked out at 8.22%.

For `N\C1=N\C2=C(N=C[N]2COCCO)C(=O)N1` [Aciclovir], the efficacy is -8.84%.

Regarding `Cc1cnc(C(=O)O)c[n+]1[O-]` [Acipimox], the efficacy was -8.25%.

As to `O=C(O)C(=O)Nc1cccc(-c2nnn[nH]2)c1` [Acitazanolast], the efficacy came out at 17%.

On to `COc1cc(C)c(/C=C/C(C)=C/C=C/C(C)=C/C(=O)O)c(C)c1C` [Acitretin], for which the efficacy is -17.3%.

On to `COc1ccc(-c2ccc3cc(C(=O)O)ccc3c2)cc1C12CC3CC(CC(C3)C1)C2` [Adapalene], for which the efficacy came out at 9.71%.

As for `COC(=O)N1CC2(CC2)C[C@H](C(=O)NO)[C@H]1C(=O)N1CCN(c2ccccc2)CC1` [Aderbasib], the efficacy is -17%.

For `COc1ccc2cccc(CCNC(C)=O)c2c1` [Agomelatine], the efficacy is -12.5%.

For the molecule `CN(C)CC(C)(C)CNc1nn2c(-c3ccccc3)nnc2cc1C1CCC1` [Akt-I-1], the efficacy is -8.48%.

Consider `CN(C)CCc1c[nH]c2ccc(C[S+](=O)([O-])N3CCCC3)cc12` [Almotriptan], for which the efficacy is -6.46%.

`CCOC(=O)[C@H]1O[C@@H]1C(=O)N[C@@H](CC(C)C)C(=O)NCCC(C)C` [Aloxistatin]: the efficacy is -5.94%.

On to `CCCCC[C@H](O)/C=C/[C@H]1[C@H](O)CC(=O)[C@@H]1CCCCCCC(=O)O` [Alprostadil], for which the efficacy is -12.3%.

For the molecule `O=C(Nc1cc(Oc2cc(F)c(NC(=O)C3(C(=O)Nc4ccc(F)cc4)CC3)cc2F)ccn1)C1CC1` [Altiratinib], the efficacy is -68.8%.

`CN(C)c1nc(N(C)C)nc(N(C)C)n1` [Altretamine]: the efficacy is -12.2%.

On to `NC12CC3CC(CC(C3)C1)C2` [Amantadine hydrochloride], for which the efficacy was -15.1%.

For the molecule `COC(c1ccccc1)(c1ccccc1)[C@H](Oc1nc(C)cc(C)n1)C(=O)O` [Ambrisentan], the efficacy is -8.06%.

As for `N=C(N)NC(=O)c1nc(Cl)c(N)nc1N` [Amiloride hydrochloride], the efficacy is -10.8%.

For `NCCCCCC(=O)O` [Aminocaproic acid], the efficacy was -11.3%.

In the case of `CCN1CCCC1CNC(=O)c1cc([S+](=O)([O-])CC)c(N)cc1OC` (stereo not given) [Amisulpride], the efficacy was -6.46%.

Regarding `CC(C)c1ccc2oc3nc(N)c(C(=O)O)cc3c(=O)c2c1` [Amlexanox], the efficacy is -24.9%.

Regarding `CC1(C)[C@@H](O[C@H]2O[C@H](C(=O)O)[C@@H](O)[C@H](O)[C@H]2O[C@@H]2O[C@H](C(=O)O)[C@@H](O)[C@H](O)[C@H]2O)CC[C@]2(C)[C@H]3C(=O)C=C4[C@@H]5C[C@@](C)(C(=O)O)CC[C@]5(C)CC[C@@]4(C)[C@]3(C)CC[C@@H]12` [Ammonium Glycyrrhizinate], the efficacy is 7.39%.

For the molecule `CCC(C)(C)c1ccc(CC(C)CN2C[C@@H](C)O[C@@H](C)C2)cc1` (stereo not given in full) [Amorolfine hydrochloride], the efficacy was -10%.

In the case of `CC1(C)S[C@H]2[C@H](NC(=O)[C@@H](N)c3ccc(O)cc3)C(=O)N2[C@H]1C(=O)O` [Amoxicillin sodium], the efficacy was found to be 6.82%.

In the case of `C[C@@H]1CC2=C(C=C3OCOC3=C2)C(=N\N1C(C)=O)/C4=CC=C(N)C=C4` [Ampanel], the efficacy was -12.4%.

Turning to `C[C@@H]1[C@H](O)[C@@H](C)/C=C/C=C/C=C/C=C/C=C/C=C/C=C/[C@H](O[C@@H]2O[C@H](C)[C@@H](O)[C@H](N)[C@@H]2O)C[C@@H]2O[C@](O)(C[C@@H](O)C[C@@H](O)[C@H](O)CC[C@@H](O)C[C@@H](O)CC(=O)O[C@H]1C)C[C@H](O)[C@H]2C(=O)O` [Amphotericin B], the efficacy was -15.3%.

For the molecule `N#CC(O[C@@H]1O[C@H](CO[C@@H]2O[C@H](CO)[C@@H](O)[C@H](O)[C@H]2O)[C@@H](O)[C@H](O)[C@H]1O)c1ccccc1` (stereo not given in full) [Amygdalin], the efficacy turned out to be 29%.

For the molecule `COc1cc(F)c(C(C)C)cc1-c1ccc(C(F)(F)F)cc1CN1C(=O)O[C@H](c2cc(C(F)(F)F)cc(C(F)(F)F)c2)[C@@H]1C` [Anacetrapib], the efficacy is -14.3%.

Turning to `ClC1=CC=C2N/C3=N/C(=O)CN3CC2=C1Cl` [Anagrelide], the efficacy is -14.6%.

Consider `CN(C)N(C)C(=O)[C@@]1(Cc2ccccc2)CCCN(C(=O)[C@@H](Cc2c[nH]c3ccccc23)NC(=O)C(C)(C)N)C1` [Anamorelin], for which the efficacy was -33.8%.

`CC(C)(C#N)c1cc(Cn2cncn2)cc(C(C)(C)C#N)c1` [Anastrozole]: the efficacy was -11.5%.

Consider `CC(=O)Nc1ccc(OC[C@](C)(O)C(=O)Nc2ccc([N+](=O)[O-])c(C(F)(F)F)c2)cc1` [Andarine], for which the efficacy was -7.63%.

With `COc1ccc(C(=O)N2CCCC2=O)cc1` [Aniracetam], the efficacy is -17.4%.

In the case of `CNC(=O)c1ccc(N2C(=S)N(c3cnc(C#N)c(C(F)(F)F)c3)C(=O)C23CCC3)cc1F` [Apalutamide], the efficacy is -24.3%.

On to `N#CC1(c2ccc(NC(=O)c3cccnc3NCc3ccncc3)cc2)CCCC1` [Apatinib], for which the efficacy is -32.7%.

Turning to `Cn1c(/C=C/CO)c(CO)c2c1C(=O)C=C(N1CC1)C2=O` [Apaziquone], the efficacy is -8.27%.

On to `OC1=CC=C(C=C1)\C2=C\C(=O)C3=C(O2)C=C(O)C=C3O` [Apigenin], for which the efficacy is -82%.

On to `NNc1nncc2ccccc12` [Apresoline], for which the efficacy is 28.9%.

For `CC1CNc2c(cccc2[S+](=O)([O-])N[C@@H](CCCNC(=N)N)C(=O)N2CC[C@@H](C)C[C@@H]2C(=O)O)C1` (stereo not given in full) [Argatroban], the efficacy was -15.9%.

For the molecule `CO[C@H]1O[C@@H]2O[C@@]3(C)CC[C@H]4[C@H](C)CC[C@@H]([C@H]1C)[C@@]24OO3` [Artemether], the efficacy was -12.5%.

On to `CN1C[C@@H]2c3ccccc3Oc3ccc(Cl)cc3[C@H]2C1` [Asenapine maleate], for which the efficacy is -77.1%.

For `CC(C)(O)[C@H]1CC[C@@](C)([C@H]2[C@@H](O)C[C@@]3(C)[C@@H]4C[C@H](O[C@@H]5O[C@H](CO)[C@@H](O)[C@H](O)[C@H]5O)[C@H]5C(C)(C)[C@@H](O[C@@H]6OC[C@@H](O)[C@H](O)[C@H]6O)CC[C@@]56C[C@@]46CC[C@]23C)O1` [Astragaloside A], the efficacy is 6.04%.

With `CC/1=C/2C[C@H]3C(=C)CCC[C@]3(C)/C=C2OC1=O` [Atractylenolide I], the efficacy turned out to be 6.55%.

With `CN1C2CCC1CC(OC(=O)C(CO)c1ccccc1)C2` (stereo not given) [Atropine (sulfate monohydrate)], the efficacy is -6.96%.

Take `COc1ccc([C@@H]2CC(=O)c3c(O)cc(O[C@@H]4O[C@H](CO[C@@H]5O[C@@H](C)[C@H](O)[C@@H](O)[C@H]5O)[C@@H](O)[C@H](O)[C@H]4O)cc3O2)cc1O` [Aurantiamarin (Methyl Hesperidin)]: the efficacy is -15%.

Regarding `Cc1ccc(NC(=O)[C@H]2CCCN(C(=O)c3c(C)cccc3F)[C@H]2c2ccc(NC3CCCC3)cc2)cc1C(F)(F)F` [Avacopan], the efficacy is -27.6%.

In the case of `NC(=O)[C@@H](CCC(F)(F)F)N(Cc1ccc(-c2ncon2)cc1F)[S+](=O)([O-])c1ccc(Cl)cc1` [Avagacestat], the efficacy was -65.8%.

As for `COc1ccc(C(=O)CC(=O)c2ccc(C(C)(C)C)cc2)cc1` [Avobenzone], the efficacy was -43.1%.

For the molecule `CN1C(=O)COc2c(C(=O)NC3CN4CCC3CC4)cc(Cl)cc21` (stereo not given) [Azasetron hydrochloride], the efficacy turned out to be 21.5%.

For `CC[C@H]1OC(=O)[C@H](C)[C@@H](O[C@H]2C[C@@](C)(OC)[C@@H](O)[C@H](C)O2)[C@H](C)[C@@H](O[C@@H]2O[C@H](C)C[C@H](N(C)C)[C@H]2O)[C@](C)(O)C[C@@H](C)CN(C)[C@H](C)[C@@H](O)[C@]1(C)O` [Azithromycin], the efficacy is -20.7%.

For the molecule `CCOc1ccccc1N/N=C1/C(=O)N(c2nc(-c3ccccc3)cs2)N=C1C` [BAM-7], the efficacy is -7.98%.

As for `O=C(O)CC(C(=O)O)N1C(=O)/C(=C2/C(=O)Nc3ccc(Br)cc32)SC1=S` (stereo not given) [BCL6 Inhibitor], the efficacy is -11.7%.

As for `CN(C)CCN(C)CCc1ccc(Cl)c(Cl)c1` [BD-1047], the efficacy is -29.2%.

On to `C[C@H]1CC2[C@@H]3CCC/4=C/C(=O)/C=C\[C@]4(C)[C@@]3(F)[C@@H](O)C[C@]2(C)[C@@]1(O)C(=O)CO` (stereo not given in full) [BETAMETHASONE], for which the efficacy was -11.5%.

In the case of `O=C(Nc1cccc(C(F)(F)F)c1)c1cccc2cc(Oc3cc(CO)ncn3)ccc12` [BFH-772], the efficacy was found to be 15.5%.

Turning to `N/C(=N\OCC(O)CN1CCCCC1)c1cccnc1` (stereo not given) [BGP-15], the efficacy is -14.5%.

As for `OC1=CC=C2\C3=C(CNCC3)/C(=O)OC2=C1C4OCCCO4` [BI09], the efficacy turned out to be 9.24%.

For the molecule `CC[C@@H]1C(=O)N(C)c2cnc(Nc3ccc(C(=O)NC4CCN(C)CC4)cc3OC)nc2N1C1CCCC1` [BI-2536], the efficacy is -71.6%.

Turning to `COC1=CC(=CC(=C1CN(C)C)OC)\C2=C\N(C)C(=O)C3=C2C=CN=C3` [BI-7273], the efficacy is -29.9%.

As to `C/C(=C\C(=O)Nc1ccccc1C(=O)O)c1ccc2ccccc2c1` [BIBR-1532], the efficacy was -69.1%.

Turning to `C=CC(=O)N[C@H]1CCOC[C@H]1Nc1ncc2cc(-c3c(Cl)c(OC)cc(OC)c3Cl)ccc2n1` [BLU-554], the efficacy was -30.8%.

For the molecule `C=CC(=O)Nc1cccc(C)c1Nc1ncc2cc(-c3c(Cl)c(OC)cc(OC)c3Cl)ccc2n1` [BLU-9931], the efficacy is -50.4%.

`C[N]1N=CN=C1[C@@H]2[C@H](NC3=CC(=CC4=C3\C2=N/NC4=O)F)C5=CC=C(F)C=C5` [BMN-673]: the efficacy is -16.8%.

Consider `CCNC(=O)Nc1ncc(-c2cc(-c3c(C)cc(OC)cc3C)nc(-c3cnccn3)n2)s1` [BMS-4], for which the efficacy was 14%.
